Data reported in US7939509B2, “Partial and full agonists of A1 adenosine receptors” (Gilead Sciences, Inc., priority 2002, dated 2011).
“Also recorded” adds a separate entry of the source.

Key:
awake rats = assay: Serum triglyceride (TG) levels in overnight-fasted awake rats; format: in vivo, rat
Description: All experimental procedures were performed under a protocol approved by the Institutional Animal Care and Use Committee of CV Therapeutics, Inc., and in accordance with the recommendations set forth in the Guide for the Care and Use of Laboratory Animals published by the National Research Council. Male Sprague-Dawley rats (225-250 gm) with either one or two indwelling catheters (carotid and jugular) were purchased from Charles River Laboratories (Wilmington, Mass.). Animals were housed 1 per cage in a room maintained on a 12 h light/dark cycle (light on 06.00-18.00 h) under constant temperature (22-25° C.) and with ad libitum access to food and water.
(§1) The anti-lipolytic effects of Compound A were studied in awake rats. Animals were fasted overnight before experimental use. On the day of the experiment, animals were put in metabolic cages and left undisturbed to acclimate to the environment for 1-2 hrs. An infusion set (21 G×¾″, 0.8×19 mm U.T.W., 3½″, 9 cm tubing, volume 0.15 ml) was connected to the arterial catheter for blood sampling. A 1% sodium citrate saline solution was used to flush the lines. A pre-treatment blood sample was obtained from each animal to determine baseline values for FFA and TG. Compound A was given via oral gavage, sc injection, iv injection, or iv infusion, as described, for each different series of experiments. Blood samples were collected into serum separator tubes (Becton Dickinson, Franklin Lakes, N.J.) at pre-determined times, Blood was allowed to clot, and then centrifuged at 8000 rpm for 4 min at 4° C. The serum was stored at −80° C. and was thawed at 4° C. for determinations of FFA and TG contents.
Compound A was synthesized by the Department of Medicinal and Bio-Organic chemistry of CV Therapeutics, Inc. Sodium citrate and Triton WR1339 were purchased from Sigma (St. Louis, Mo.). Nicotinic acid and PEG 400 were purchased from VWR (by EMD Chemicals). Triton WR 1339 was diluted in warm saline (˜37° C.) with frequent vortexing. Nicotinic acid was dissolved in saline. Compound A was dissolved in PEG 400, and then diluted with distilled water to make a 20% PEG drug solution. Serum FFA and TGs were measured using commercial kits from Wako Chemicals, Richmond, Va. Glucose and Insulin were measured using commercial kits from Wako Chemicals USA (Richmond, Va.).
All data are reported as mean±SEM. Statistical analysis of data from experiments with 2 treatment groups was performed using the unpaired Student's t-test. Two way analysis of variance followed by Bonferroni's test was used for multiple comparisons. Differences among treatment groups were considered to be significant when the probability of their occurrence by chance alone was <0.05.

C57BL/J6 mice = assay: Hyperinsulinemic euglycemic clamp in C57BL/J6 mice on high fat diet for 12 weeks; format: in vivo, mouse; conditions: 2.5 mg/kg or 5.0 mg/kg ip 15 min prior to clamp
Description: C57BL/J6 mice were maintained on normal chow or a HF diet (Bovine Lard, 23 wt/wt %, 44 energy % provided by the lard) for 12 weeks to induce insulin resistance. At the end of 12 weeks a hyperinsulinemic euglycemic clamp analysis was performed to measure insulin sensitivity in the absence and presence of Compound A. Compound A was given via an ip injection 15 minutes before the clamp protocol was started. After an overnight fast, glucose turnover studies were performed as described previously (6; 11). Briefly, animals were anesthetized; an infusion needle was placed in one of the tail veins. Thereafter, a bolus of insulin was given and a hyperinsulinemic clamp was started by continuous infusion of insulin. Blood samples were taken every 10 minutes (tail bleeding) to monitor plasma glucose levels. A variable infusion of 12.5% D-glucose (in PBS) solution was started at time 0 and adjusted to maintain blood glucose at ˜6.0 mM. When steady state glucose levels were reached (approximately 1 hour after start of the insulin infusion) a final blood sample was taken (for measurement of plasma insulin) and the hyperinsulinemic euglycemic clamp was terminated.

rats fed high fat diet = assay: Chronic 2 week treatment: fasting glucose, insulin, FFA, TG in high fat diet rats; format: in vivo, rat; conditions: 5 mg/kg SC for 2 weeks, HF rats
Description: Animals were fasted overnight before taking samples. Compound A was given via SC injection for 2 weeks at a dose of 5 mg/kg. Data is presented as mean±SEM from number of animals indicated below each bar. […] Male Sprague-Dawley rats (225-250 gm) with either one or two indwelling catheters (carotid and jugular) were obtained from Charles River Laboratories (Wilmington, Mass.). Animals were housed 1 per cage in a room maintained on a 12 h light/dark cycle (light on 06.00-18.00 h) under constant temperature (22-25° C.) and with ad libitum access to food and water. Rats on normal diet (Chow) were fed standard laboratory chow (12% fat, 60% carbohydrate, and 28% protein) throughout the study, while animals in the high fat (HF) diet group were given a diet (TD88137 from Harlan Teklad, Madison, Wis.) containing 42% fat, 43% carbohydrate, and 15% protein. The anti-lipolytic effects of Compound A (see chemical name below) were studied in awake rats. On the day of the experiment, animals were put in metabolic cages and left undisturbed to acclimate to the environment for 1-2 hrs. An infusion set (21 G×¾″, 0.8×19 mm U.T.W., 3½″, 9 cm tubing, volume 0.15 ml) was connected to the arterial catheter for blood sampling. A 1% sodium citrate saline solution was used to flush the lines. A pre-treatment blood sample was obtained from each animal to determine baseline values for glucose, insulin, FFA and TG. Blood samples were collected into plasma and serum separator tubes (Becton Dickinson, Franklin Lakes, N.J.) at pre-determined time points. […] For chronic experiments Compound A was administered twice a day via subcutaneous injection at a dose of 5 mg/kg for 2 weeks. […] Statistical analysis of data from experiments with 2 treatment groups was performed using the unpaired Student's t-test. One way analysis of variance (ANOVA) followed by Newman-Keuls posthoc analysis was used for multiple comparisons. […] Differences between/among treatment groups were considered to be significant when the probability of their occurrence by chance alone was <0.05.

normal rats = assay: Triglyceride production after Triton WR 1339 injection in rats; format: in vivo, rat
Description: FIG. 3 graphs the time-dependent increase of TG caused by Triton […] in the absence or presence of Compound A as described in Example 31. After a 4 hour fast, rats received either vehicle or Compound A (5 mg/kg) via SC injection. After 5 minutes, Triton (400 mg/kg) was given as a slow intravenous bolus. Data are presented as ±SEM of values from 7-8 animals. Slope of the lines (determined by linear regression analysis) was 5.6±0.1 and 3.8±0.2 for vehicle and Compound A groups, respectively. Data were analyzed using 2 way ANOVA followed by Bonferroni's post hoc test.
as §1
Compound A was synthesized by the Department of Medicinal and Bio-Organic chemistry of CV Therapeutics, Inc. Sodium citrate and Triton WR1339 were purchased from Sigma (St. Louis, Mo.). […] Serum FFA and TGs were measured using commercial kits from Wako Chemicals, Richmond, Va. Glucose and Insulin were measured using commercial kits from Wako Chemicals USA (Richmond, Va.).
To further investigate the mechanism of the decrease in TG levels by Compound A, total TG production was measured in normal rats. […]

## O[C@@H]1[C@H](O)[C@@H](CSc2ccccc2F)O[C@H]1n1cnc2c(N[C@@H]3CCC[C@H]3O)ncnc21 [Compound A, 2-{6-[((1R,2R)-2-hydroxycyclopentyl)amino]purin-9-yl}(4S,5S,2R,3R)-5-[(2-fluorophenylthio)methyl]oxolane-3,4-diol]
Awake rats; 2.5 mg/kg oral gavage
  decrease in TG levels: 36%
Awake rats; 2.5 mg/kg oral gavage, from 54±4 mg/dl, p<0.05
  serum TG level: 35 ± 4 mg/dL
Awake rats; 5 mg/kg oral gavage
  reduction in TG levels compared to vehicle-treated rats: 41%
Awake rats; 5 mg/kg oral gavage, p<0.01
  serum TG level: 32 ± 4 mg/dL
Awake rats; 10 mg/kg oral gavage
  reduction in TG levels compared to vehicle-treated rats: 58%
Awake rats; 10 mg/kg oral gavage, p<0.01
  serum TG level: 23 ± 1 mg/dL
Awake rats; 2.5, 5, 10 mg/kg oral gavage
  reduction of serum triglyceride levels, dose dependence: dose-dependent manner
C57BL/J6 mice
  insulin-mediated glucose disposal / glucose infusion rate (GIR) vs untreated HF mice: significant differences (p<0.01); also recorded: significantly greater (p<0.01)
Rats fed high fat diet
  fasting FFA concentration vs placebo: significantly lower
  fasting TG concentration vs placebo: significantly lower
  fasting glucose concentration vs placebo: no significant differences
  fasting insulin concentration vs placebo: significantly lower
Normal rats; 180 minutes post-treatment, p<0.01
  increase in serum TG caused by Triton vs vehicle-treated animals: significantly less
Normal rats; FIG. 3 legend: 5 mg/kg SC, Triton 400 mg/kg iv, 4 hour fast, vehicle 5.6±0.1
  slope of the time-dependent TG increase caused by Triton (linear regression): 3.8±0.2
Normal rats; text: Triton 600 mg/kg, vehicle printed as 3.8±0.17, p<0.001
  TG accumulation, slope of the line (linear regression): 5.6 ± 0.12 mg/dL/min
